Experiments:
[1] = tested on: acute tympanic perforations in mice; experiment: HB-EGF inhibitor applied to acute tympanic membrane perforations (chronic TM perforation model); assay type: in vivo; conditions: for Perforations open at 2 months / Perforations open at 3 months: mice, OSU8-1 10 mM on gel foam over seven days
Procedure: EGFR ligand shedding can be inhibited to create a chronic tympanic membrane perforation model. Subtotal perforations were created in the pars tensa of TMs in 20 mice using a curved needle. OSU8.1 (10 mM), a selective HB-EGF inhibitor (see Tokumaru et al. (2000) J. Cell Biol.), was injected onto gel foam (placed through and onto the perforation) over seven days. Mice were sacrificed at time points (Day 2, 7, 14, 30, 44, 60 and 90) to observe the effects on keratinocyte migration. The contralateral ear was used as a control with saline placed onto gel foam. All of these were closed within 2 weeks. Five of seven (71%) of the treatment ears were open at three months. Perforation size was stable over three months (using ImageJ to calculate the perforation area as a percentage of the pars tensa area). A larger cohort was undertaken with 87.9% (n=58) having chronic perforations at 3 months.
100% of HB-EGF inhibitor treated perforations were present at two months compared to 5% of controls and 71% were present at three months compared to 5% of controls

[2] = tested on: chronic perforation model with ET occlusion inoculated with Pseudomonas aeruginosa; experiment: HB-EGF treatment in animal model for chronic suppurative otitis media (CSOM); assay type: in vivo, mice; conditions: polymer and HB-EGF at 5 μg/ml
Source text: Testing in an animal model for chronic suppurative otitis media. After creating the chronic perforation model with ET occlusion, Pseudomonas aeruginosa (dose of 6×10^9 colony forming units per ml) were inoculated into the middle ear through the existing chronic perforations. At 2 weeks the ear fluid was collected and sent for polymerase chain reaction (PCR) to confirm the presence of bacteria. This positive PCR validated the CSOM model. The mice were then divided into two cohorts. One received polymer only. The other received polymer and HB-EGF at 5 μg/ml (same dose used in above models). 100% of the HB-EGF group healed (16 of 16) compared to 41% (7/17) in the control group (p<0.01). In the control group the healing was also different when it did occur. The TM was often very thin and transluscent compared to a slightly opaque normal TM. […] The ability to still overcome this critical step in TM chronic wound healing using HB-EGF to activate EGFR ectodomain ligand in the closest model to human CSOM validates the method of treatment.

[3] = tested on: chronic perforations and ET occlusion in mice; experiment: HB-EGF treatment of chronic TM perforations with Eustachian tube occlusion; assay type: in vivo
Procedure: HB-EGF heals chronic tympanic membrane perforations with Eustachian tube occlusion. An existing rat model of ET occlusion (see Herda et al. (2002) Laryngoscope 112:1657-62) was adapted to the mouse and has since been performed in 80 live mice with success. The ET occlusion was performed with the chronic perforation model described above. This created a wet sterile discharging perforation at 3 months. This model mimics the human condition of chronic perforation combined with ET dysfunction.
When a cohort of mice with this model (chronic perforations and ET occlusion) were treated with recombinant HB-EGF, 40 μl at a concentration of 5 μg/ml (sustained release dose via a bioabsorbable chitosan polymer) 94% (18 of 19) healed compared to 9% (2 of 23) of controls (polymer only) at 6 weeks (p<0.01). […] The ability to overcome this critical step in TM chronic wound healing using HB-EGF to activate EGFR ectodomain ligand shedding in the presence of middle ear effusions and ET occlusion is useful in treating patients with chronic tympanic membrane perforation.

[4] = tested on: chronic perforations in mice ears; experiment: HB-EGF treatment of chronic tympanic membrane perforations; assay type: in vivo; conditions: 40 μl gel, 5 μg/ml, sustained release chitosan-based polymer; at 4 weeks; p<0.01 vs polymer only
Procedure: HB-EGF heals chronic tympanic membrane perforations. When a cohort of chronic perforations in mice ears were treated with 40 μl of a gel containing recombinant HB-EGF at a concentration of 5 μg/ml (sustained release dose via a bioabsorbable chitosan-based polymer) 92% (22 of 24) healed, compared to 38% (10 of 26) of controls (polymer only) at 4 weeks (p<0.01). […] This is the first growth factor treatment tested in an animal model of chronic perforation that has shown significant benefit over control.

## CNC(=O)[C@@H](NC(=O)[C@H](CC(C)C)[C@H](C)C(=O)NO)c1ccccc1 [OSU8-1]
[1]; larger cohort, n=58, 3 months
  chronic perforations at 3 months, larger cohort: 87.9%
[1]
  Perforations open at 2 months: 100%
[1]; listed as HB-EGF inhibitor
  Perforations open at 2 months: 100%
[1]; 3 months
  Perforations open at 3 months: 71%
[1]; 3 months, listed as HB-EGF inhibitor
  Perforations open at 3 months: 71%
[1]; 3 months, listed as OSU8.1
  Perforations open at 3 months: 71%
[1]; over three months, ImageJ
  Perforation size (perforation area as a percentage of the pars tensa area): stable

B1: HB-EGF: recombinant heparin binding epidermal growth factor, delivered in a bioabsorbable chitosan-based polymer gel at 5 μg/ml (protein, UniProt Q99075 63-148, looked up)
Heparin-binding EGF-like …: DLQEADLDLLRVTLSSKPQALATPNKEEHGKRKKKGKGLGKKRDPCLRKYKDFCIHGECKYVKELRAPSCICHPGYHGERCHGLSL
modifications: Heparin-binding EGF-like growth factor in chitosan-based gel
[2]
  appearance of healing in CSOM model: appeared normal
[2]; p<0.01 vs polymer only
  perforations healed in CSOM model: 100%
[3]; 40 μl at 5 μg/ml, sustained release chitosan polymer, at 6 weeks, p<0.01 vs polymer only
  chronic perforations with ET occlusion healed: 94%
[3]; chronic perforations and ET occlusion model
  histology of perforation closure: close with thick layer of keratinocytes
[4]
  chronic perforations healed: 92%
